{
  "source": "paper PMC11833279",
  "about": "“Versatile Features of an Antibody Mimetic Peptide and Its Variants” (Journal of Peptide Science, 2025)",
  "key": {"GALV‐RV": {"tested_on": "GALV‐RV", "format": "cell-based", "conditions": "read-out: GALV‐RV transduction enhancing effect EC50; Jurkat cells, GFP‐expressing GALV‐RV, peptide‐virus mix incubated 10 min, GFP by flow cytometry 2 days posttransduction; three independent experiments ± SD", "protocol": "For the generation of GFP‐expressing γ‐retroviral vector pseudotyped with the glycoprotein of gibbon ape leukemia virus (GALV‐RV), 800,000 HEK293T cells were initially seeded and cotransfected as previously described using following plasmids:GFP‐expressing Murine leukemia virus (MLV) vector E200 pcmE26‐gfp (1.15 μg), E848 pCsGPpA‐ed (0.95 μg), and GALV glycoprotein (0.4 μg).\nFor the determination of transduction enhancement of GFP‐expressing GALV‐RV, 50,000 Jurkat cells (ATCC, TIB‐152) were seeded in 180 μL RPMI medium (Gibco, 11875093) supplemented with 10% inactivated fetal calf serum (FCS, Gibco, 10437028), 2 mM L‐glutamine (PAN‐Biotech, P04–80050), 100 U/mL penicillin, and 100 μg/mL streptomycin (PAN‐Biotech, P06–07050). Different concentrations of peptides were 1:1 (v/v) mixed with GALV‐RV (1280 dilution on cells) and incubated for 10 min. Subsequently, 20 μL of the virus‐peptide mix was added to cells, and 2 days posttransduction, GFP‐expression was analyzed by flow cytometry using CytoFlex (Beckmann Coulter), and the evaluation was carried out with FlowJo™ (Version 10.8.1)."}, "HIV‐1NL4–3 [1]": {"tested_on": "HIV‐1NL4–3", "format": "cell-based", "conditions": "CEMx174 SEAP indicator cells, HIV‐1NL4–3, SEAP activity three days after infection; mean and standard error of at least three independent experiments; read-out: HIV‐1 neutralizing activity IC50", "protocol": "The plasmid HIV‐1pBRNL4–3, kindly provided by F. Kirchhoff, Ulm, was propagated in XL‐1 Blue competent cells (Stratagene – an Agilent Technologies Division, Waldbronn, Germany) and transfected into 293 T cells using FuGENE HD (Roche, Mannheim, Germany). After 48 h, supernatants were cleared by filtering through 0.22 μm Millex‐GS units (Millipore, Schwalbach, Germany) and stored in aliquots at −80°C.\nThe indicator cell line CEMx174, which was kindly provided by R. E. Means and R. C. Desrosiers, contained the gene for the secreted alkaline phosphatase (SEAP) under the control of the simian immunodeficiency virus long terminal repeat. Three days after HIV‐1NL4–3 infection, cell culture supernatants were removed and analyzed for SEAP activity using the Phospha‐Light kit (Life Technologies, Darmstadt, Germany) according to the manufacturer's recommendations. Data represent mean and standard error of at least three independently performed experiments."}, "HIV‐1NL4–3 [2]": {"tested_on": "HIV‐1NL4–3", "conditions": "HIV‐1 neutralization; read-out: HIV‐1 neutralizing activity IC50; cited from earlier work", "from_the_text": "Addressing the significance of the disulfide bridge in H1H3, a linear variant (H1H3s) was generated, in which the two cysteine residues were replaced by serine (see Table 1 for peptide sequences)."}},
  "note": "Where two headings read alike, the source gives them in different places. Non-standard residues stand in square brackets, D forms with d. Residues, ends and D or L forms follow the SMILES beside them. *: point of attachment. Biotin = O=C1N[C@H]2[C@H](CS[C@H]2CCCCC(=O)*)N1; Ahx = NCCCCCC(=O)O; βAla = NCCC(=O)O",
  "data": [
    {"molecule": "CC[C@H](C)[C@H](NC(=O)[C@@H](NC(=O)[C@H](Cc1ccccc1)NC(=O)[C@H](CC(N)=O)NC(=O)[C@H](CO)NC(=O)[C@H](Cc1ccccc1)NC(=O)[C@H](CCCNC(=N)N)NC(=O)[C@H](Cc1ccc(O)cc1)NC(=O)CNC(C)=O)C(C)C)C(=O)N[C@@H](Cc1c[nH]cn1)C(=O)N[C@@H](Cc1c[nH]c2ccccc12)C(=O)NCC(=O)NCCC(=O)NCC(=O)NCCCCCC(=O)NCC(=O)N[C@@H](CCCCNC(=O)CCCC[C@@H]1SC[C@@H]2NC(=O)N[C@@H]21)C(=O)NCC(=O)NCCCCCC(=O)N[C@@H](CO)C(=O)N[C@H](C(=O)NCC(=O)N1CCC[C@H]1C(=O)N[C@@H](Cc1ccc(O)cc1)C(=O)N[C@@H](CO)C(=O)N[C@@H](Cc1c[nH]c2ccccc12)C(=O)N[C@@H](CC(=O)O)C(=O)N[C@@H](CCCCN)C(=O)N[C@@H](CO)C(=O)N1CCC[C@H]1C(=O)N[C@@H](CCC(N)=O)C(=O)N[C@@H](CC(=O)O)C(=O)N[C@@H](CC(N)=O)C(=O)N[C@@H](Cc1ccc(O)cc1)C(=O)N[C@@H](CCSC)C(=O)N[C@@H](CC(=O)O)C(=O)N[C@@H](CO)C(N)=O)C(C)C", "note": "[H1H3s‐D100^bK] (Ac-GYRFSNFVIHWG[βAla]G[Ahx]GK(Biotin)G[Ahx]SVGPYSWDKSPQDNYMDS-NH2)", "values": [
      {"measurement": "EC50", "setting": "GALV‐RV", "value": "630 ± 40", "unit": "nM"}
    ]},
    {"molecule": "CC[C@H](C)[C@H](NC(=O)[C@H](NC(=O)[C@H](Cc1ccccc1)NC(=O)[C@@H](CC(N)=O)NC(=O)[C@H](CO)NC(=O)[C@@H](Cc1ccccc1)NC(=O)[C@H](CCCNC(=N)N)NC(=O)[C@@H](Cc1ccc(O)cc1)NC(=O)CNC(C)=O)C(C)C)C(=O)N[C@H](Cc1c[nH]cn1)C(=O)N[C@@H](Cc1c[nH]c2ccccc12)C(=O)NCC(=O)NCCC(=O)NCC(=O)NCCCCCC(=O)NCC(=O)N[C@@H](CCCCNC(=O)CCCC[C@@H]1SC[C@@H]2NC(=O)N[C@@H]21)C(=O)NCC(=O)NCCCCCC(=O)N[C@H](CO)C(=O)N[C@@H](C(=O)NCC(=O)N1CCC[C@@H]1C(=O)N[C@@H](Cc1ccc(O)cc1)C(=O)N[C@H](CO)C(=O)N[C@@H](Cc1c[nH]c2ccccc12)C(=O)N[C@H](CC(=O)O)C(=O)N[C@@H](CC(=O)O)C(=O)N[C@H](CO)C(=O)N1CCC[C@H]1C(=O)N[C@H](CCC(N)=O)C(=O)N[C@@H](CC(=O)O)C(=O)N[C@H](CC(N)=O)C(=O)N[C@@H](Cc1ccc(O)cc1)C(=O)N[C@H](CCSC)C(=O)N[C@@H](CC(=O)O)C(=O)N[C@H](CO)C(N)=O)C(C)C", "note": "[H1H3s‐L/D] (Ac-G[dY]R[dF]S[dN]F[dV]I[dH]WG[βAla]G[Ahx]GK(Biotin)G[Ahx][dS][dV]G[dP]Y[dS]W[dD]D[dS]P[dQ]D[dN]Y[dM]D[dS]-NH2)", "values": [
      {"measurement": "IC50", "setting": "HIV‐1NL4–3 [1]", "value": "> 60000", "unit": "nM"}
    ]},
    {"molecule": "CC[C@@H](C)[C@@H](NC(=O)[C@H](NC(=O)[C@@H](Cc1ccccc1)NC(=O)[C@@H](CC(N)=O)NC(=O)[C@@H](CO)NC(=O)[C@@H](Cc1ccccc1)NC(=O)[C@@H](CCCNC(=N)N)NC(=O)[C@@H](Cc1ccc(O)cc1)NC(=O)CNC(C)=O)C(C)C)C(=O)N[C@H](Cc1c[nH]cn1)C(=O)N[C@H](Cc1c[nH]c2ccccc12)C(=O)NCC(=O)NCCC(=O)NCC(=O)NCCCCCC(=O)NCC(=O)N[C@H](CCCCNC(=O)CCCC[C@@H]1SC[C@@H]2NC(=O)N[C@@H]21)C(=O)NCC(=O)NCCCCCC(=O)N[C@H](CO)C(=O)N[C@@H](C(=O)NCC(=O)N1CCC[C@@H]1C(=O)N[C@H](Cc1ccc(O)cc1)C(=O)N[C@H](CO)C(=O)N[C@H](Cc1c[nH]c2ccccc12)C(=O)N[C@H](CC(=O)O)C(=O)N[C@H](CC(=O)O)C(=O)N[C@H](CO)C(=O)N1CCC[C@@H]1C(=O)N[C@H](CCC(N)=O)C(=O)N[C@H](CC(=O)O)C(=O)N[C@H](CC(N)=O)C(=O)N[C@H](Cc1ccc(O)cc1)C(=O)N[C@H](CCSC)C(=O)N[C@H](CC(=O)O)C(=O)N[C@H](CO)C(N)=O)C(C)C", "note": "[H1H3s‐allD] (Ac-G[dY][dR][dF][dS][dN][dF][dV][dI][dH][dW]G[βAla]G[Ahx]G[dK](Biotin)G[Ahx][dS][dV]G[dP][dY][dS][dW][dD][dD][dS][dP][dQ][dD][dN][dY][dM][dD][dS]-NH2)", "values": [
      {"measurement": "IC50", "setting": "HIV‐1NL4–3 [1]", "value": "1900 ± 400", "unit": "nM"}
    ]},
    {"molecule": "CC[C@H](C)[C@H](NC(=O)[C@@H](NC(=O)[C@H](Cc1ccccc1)NC(=O)[C@H](CC(N)=O)NC(=O)[C@H](CO)NC(=O)[C@H](Cc1ccccc1)NC(=O)[C@H](CCCNC(=N)N)NC(=O)[C@H](Cc1ccc(O)cc1)NC(=O)CNC(C)=O)C(C)C)C(=O)N[C@@H](Cc1c[nH]cn1)C(=O)N[C@@H](Cc1c[nH]c2ccccc12)C(=O)NCC(=O)NCCC(=O)NCC(=O)NCCCCCC(=O)NCC(=O)N[C@@H](CCCCNC(=O)CCCC[C@@H]1SC[C@@H]2NC(=O)N[C@@H]21)C(=O)NCC(=O)NCCCCCC(=O)N[C@@H](CO)C(=O)N[C@H](C(=O)NCC(=O)N1CCC[C@H]1C(=O)N[C@@H](Cc1ccc(O)cc1)C(=O)N[C@@H](CO)C(=O)N[C@@H](Cc1c[nH]c2ccccc12)C(=O)N[C@@H](CC(=O)O)C(=O)N[C@@H](CC(=O)O)C(=O)N[C@@H](CO)C(=O)N1CCC[C@H]1C(=O)N[C@@H](CCC(N)=O)C(=O)N[C@@H](CC(=O)O)C(=O)N[C@@H](CC(N)=O)C(=O)N[C@@H](Cc1ccc(O)cc1)C(=O)N[C@@H](CCSC)C(=O)N[C@@H](CC(=O)O)C(=O)N[C@@H](CO)C(N)=O)C(C)C", "note": "[Peptide H1H3s] (Ac-GYRFSNFVIHWG[βAla]G[Ahx]GK(Biotin)G[Ahx]SVGPYSWDDSPQDNYMDS-NH2)", "values": [
      {"measurement": "IC50", "setting": "HIV‐1NL4–3 [1]", "value": "6300 ± 100", "unit": "nM"}
    ]},
    {"molecule": "Ac‐GYRFSNFVIHW‐GB ^b GX ^c G‐K*‐GX‐[CVGPYSWDDSPQDNYMDC]‐NH2 (disulfide) [Peptide H1H3, b12 paratope mimetic peptide presenting heavy chain CDRs H1 and H3, H3 disulfide‐bridged, biotinylated lysine between them]", "values": [
      {"measurement": "IC50", "setting": "HIV‐1NL4–3 [2]", "value": 1700, "unit": "nM"}
    ]}
  ]
}
